“And” between values parts separate entries of the source, which are not always exact repeats. Identical values can stand only once. Bounds are passed on as bounds.

As usually defined, the IC50 is the concentration at which inhibition is half-maximal. Low readings indicate inhibition by little substance, high ones a need for much substance.

For one data set, the system named is Mouse NSC 34 cells. Put plainly: Cell uptake of tocols by NSC 34 cells (GC/MS). The format is cell-based. The settings on record: final concentration 5 μM, 0-24 hours, FIG. 1. The method, then: The experiment was carried out as described below. Mouse NSC 34 cells were grown in Dulbecco's modified Eagle's medium (DMEM) supplemented with 10% fetal bovine serum and 1% penicillin/streptomycin at 37° C. in a humidified atmosphere containing 95% air and 5% CO2. The cell culture medium was replaced every 2 or 3 days with fresh medium containing serum and antibiotic. Cells were reseeded when the cell monolayers became confluent. For the experiments, cells at passages 15-27 were seeded in 6-well plates at 1 million cells per well. 5 mM test solutions were prepared in DMSO. NSC 34 monolayers above 80% confluency were treated with 2 μl of test compound (final concentration 5 μM) for 0, 1, 2, 4, 8, 12, and 24 hours. […] Hexane extracts were dried under nitrogen and were quantitatively transferred to a deactivated glass micro insert using methylene chloride and dried under nitrogen. […] Protein concentration was determined using the Pierce BCA protein assay kit. The derivatized samples were analyzed using GC/MS by single ion monitoring (Agilent 5975 GC/MSD; Agilent Technologies, Palo Alto, Calif.). […] Samples were analyzed using helium as the carrier gas (head pressure of 27 psi), 1 μl splitless injection, the injector temperature was 275° C., the column temperature was maintained at 220° C. for 2 min followed by a gradient of 25° C./min to 300° C., and remained at that temperature for 10 min. […]

The next data set has as its system rat liver microsomes. Put plainly: Inhibition of lipid peroxidation in rat liver microsomes treated with TBHP. It counts as biochemical, Wistar rat. The settings on record: FIG. 2; for IC50: 1 mg/ml microsomal protein, 37° C. 1 hour preincubation, 200 μM TBHP for 30 min. On the procedure:
One of the most well-known properties of the vitamin E components is their ability to prevent lipid peroxidation. See Traber et al. (2011) Free Radis Biol Med 51(5):1000-1013. Briefly, the antioxidant activity of vitamin E analogs was evaluated in rat liver microsomes by measuring inhibition of lipid peroxidation after TBHP ([…]) treatment. Wistar rat liver microsomes (BD Biosciences) were diluted in phosphate buffer, 0.1 M (pH 7.4), at the final protein concentration of 1 mg/ml. The microsomes were treated with different concentrations of tocols (diluted with DMSO) and incubated at 37° C. for 1 hour before inducing lipid peroxidation with 200 μM TBHP (DMSO) for 30 min.

In the case of `CC(C)=CCC[C@@H](C)CCC/C(C)=C/CC[C@]1(C)CCc2cc(O)cc(C)c2O1` [δ-tocoflexol, (2R,8′S)-δ-tocoflexol], in the data set on Mouse NSC 34 cells, the “cell-uptake compared with that of α-tocopherol” value is “almost double”. The same compound came in with an IC50 in the data set with rat liver microsomes of 1.35 µM. In addition, the “antioxidant potential, times that of α-tocopherol (AT)” value in the data set with rat liver microsomes (rat liver microsomes treated with 200 μM TBHP) was > 5 times and 5 times.

In turn, `Cc1c(C)c2c(c(C)c1O)CC[C@@](C)(CCC[C@H](C)CCC[C@H](C)CCCC(C)C)O2` [AT, α-tocopherol, reference compound] had an IC50 with rat liver microsomes of 6.78 µM.

Values taken from patent publication US9309547B2, “Methods for making tocoflexols and analogues thereof” (The Board of Trustees of the University of Arkansas, priority 2012, dated 2016).
